From US20260256811A1, “Humoral Immune Activators for the Treatment of Humoral Immunosuppressed Pathologies, Cancer and Infectious Disease and Humoral Immune Suppressors for the Treatment of Inflammatory Diseases” (Navrogen, Inc., priority 2022, published 2026)

How the values were obtained:
[1] = Tolerability and serum TNFα in athymic nude mice, i.v. dosing; type: in vivo
Protocol: To determine the ability of Compound 2 to activate immune-effector cells in vivo, we administered 7 mg/kg of Compound 2 or similar volumes of vehicle (ethanol) daily for 5 days (day 1-5) and isolated total serum on day 11 to measure for immune-effector cell activation markers. […] Experiments represent a minimum of triplicate wells.

[2] = test system: SKBR3, OE19 or OV-CD20 target cells; assay: ADCC by human PBMC and NK effector cells against tumor target cells; type: cell-based; settings: 25 or 50 μM plus 2.5 μg/mL trastuzumab or rituximab, 24 hours; vs antibody alone (vehicle)
Protocol: (§1) Briefly, 5,000 human breast carcinoma (SKBR3 or OE19) or OV-CD20 target cells were plated in black 96-well microplates in R7.5 media for 48 hours. Wells were washed and 50,000 PBMC, NK or SPL effector cells were added in R1 assay media with or without a targeting test antibody and 25 or 50 μM of Compound 2. Vehicle is the solvent that Compound 2 is dissolved in. For assays employing SKBR3 human breast cancer or OE19 esophageal adenocarcinoma cell lines, 2.5 μg/mL of the HER2-targeting trastuzumab test antibody was used for ADCC assays. For OV-CD20 assays, 2.5 μg/mL of the CD20-targeting rituximab test antibody was used for ADCC assays. Cultures were incubated for 24 hours at 37° C. in 5% CO2 in triplicate. After incubation, culture supernatants were harvested for cytokine analysis and wells were washed with phosphate buffered saline and adhered target cell viability was quantified via Cell Titer-GLO (Promega) using a Varioskan plate reader. […] ADCC data was graphed as percent killing of antibody treated with Compound 2 or vehicle vs. cultures not treated with antibody. […] AICC results were graphed as percent killing by Compound 2 vs vehicle only treated cultures. […] Experiments represent a minimum of triplicate wells.

tumor target cells = assay: ADCC and cytokine production by mouse splenocyte (SPL) effector cells; type: cell-based; settings: 25 or 50 μM plus targeting antibody, 24 hours; vs antibody alone (vehicle)
Protocol: as §1

CD16a-158F FcR = biological target: T1, CD16a-158F FcR (Homo sapiens, UniProt P08637); assay: Jurkat-CD16a-158F-luciferase (JKT-CD16a) reporter bioassay; type: cell-based
T1 construct: host or cells: Jurkat (JKT-CD16a luciferase reporter line)
T1 sequence (P08637 17-254): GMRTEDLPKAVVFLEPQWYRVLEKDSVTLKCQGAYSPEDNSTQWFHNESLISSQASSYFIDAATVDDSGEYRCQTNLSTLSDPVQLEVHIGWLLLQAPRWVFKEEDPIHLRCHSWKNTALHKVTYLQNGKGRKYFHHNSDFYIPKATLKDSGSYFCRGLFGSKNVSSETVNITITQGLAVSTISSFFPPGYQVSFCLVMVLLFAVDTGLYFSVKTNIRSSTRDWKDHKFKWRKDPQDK
T1 sequence (P20963 22-164 partner): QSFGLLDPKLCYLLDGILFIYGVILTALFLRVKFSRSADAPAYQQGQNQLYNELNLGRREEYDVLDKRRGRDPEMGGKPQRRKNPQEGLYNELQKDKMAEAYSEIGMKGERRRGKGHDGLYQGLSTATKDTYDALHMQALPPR

CD16a FcR [3] = assay: Cytokine and granzyme ELISA on supernatants of primary human effector cells; type: cell-based
Protocol: as §1

[4] = Metabolic stability in mouse liver microsomes; type: in vitro ADME; settings: mouse, microsomes
Protocol: (§2) We next tested Compounds 2, 26, 27 and 33 for metabolic stability using human and mouse microsomes. For each test compound, samples were diluted a final concentration of 2 μg/mL in 25 mM potassium phosphate buffer with liver microsomes of each species at a final concentration of 0.5 mg/mL. The enzyme reaction was initiated by the addition of NADPH reagent at a final concentration of 1 mM. For negative control samples, NADPH reagent was not added. Samples were incubated at 37° C. on a 50-RPM orbital shaker, and an aliquot was removed at pre-determined timepoints at 0, 5, 10, 15, 30, and 60 minutes. Samples were then precipitated with three volume of acetonitrile containing propranolol as an internal standard, and centrifuged for 10 min at 2000 g then analyzed by LC/MS/MS. Note that compounds undergo only Phase I metabolism in liver microsomes in the presence of NADPH cofactors. Data interpretation of results are based on percent parent compound remaining relative to 0-minute incubation samples, from which the elimination half-life is calculated based on the natural log of % compound remaining vs. time plot. The following parameters were calculated to estimate the compound's in vitro metabolic stability: Cmp=concentration of microsomal proteins (mg/mL); t1/2=the half-life (min), where t1/2 is equal to 0.693/slope; CLint=the intrinsic hepatic clearance (μL/min/mg), where CLint is equal to 0.693/(t1/2×Cmp).

SARS-COV-2 virus = assay: Viability of human PBMCs exposed to SARS-COV-2 virus; type: cell-based; settings: Severe acute respiratory syndrome coronavirus 2, PBMC, 72 h, read-out: PBMC viability after SARS-COV-2 exposure
Description: NK cells have been previously reported to be capable of killing virally infected cells (Bjorkstrom N K, et al. Nat Reviews Immunol 22:112-123, 2022). In particular, previous studies have shown that the SARS-COV-2 virus can infect human PBMCs and this infection can be lethal to overall PBMC survival (Manunta MDI, et al. Scientific Reports 11:4904-4916, 2021). To test the ability of CD16a FcR activating small molecular weight agents described here to activate effector cells within PBMCs that in turn can kill virally infected PBMC sib cells and reduce viral load, Compound 2 was tested against human PBMCs exposed to SARS-COV-2 virus. Briefly, IL2-activated PBMCs grown in RPMI media with 10% heat inactivated FBS (R10) were plated at 100,000 cells/well in 96 well U-bottom microplates. Next, […] viral titers (previously determined by plaque forming units, PFU) were added to appropriate wells with or without 25 μM of Compound 2. Cultures were incubated for 72 hours at 37° C. in 5% CO2. Plates were centrifuged and supernatants collected for future cytokine and viral titer analysis. Cells were resuspended in RPMI plus 10% FBS, transferred to 96-well black microplates and tested for viability using Cell Titer-Glo (Promega) and read for viability on a 96-well microplate reader. […] Experiments represent a minimum of triplicate wells.

OV-CD20 tumor cells = assay: AICC by human primary NK cells; type: cell-based; settings: absence of antibody, vs vehicle
Protocol: as §1

CD16a FcR [5] = assay: Cytokine ELISA on culture media of JKT-CD16a and parental Jurkat cells; type: cell-based, human; settings: 10 μM, 18 hours, ELISA of supernatant
[6] = Metabolic stability in human liver microsomes; type: in vitro ADME; settings: human, microsomes
Protocol: as §2

In the case of CC(C)=CCC[C@@H](C)[C@H]1CC[C@@]2(C)C3CC[C@H]4C(C)(C)[C@@H](O)CC[C@@]45C[C@@]35CC[C@]12C (some centres unmarked) [Compound 2], the “serum TNFα” value ([1]; 7 mg/kg i.v. daily day 1-5, serum on day 11, ELISA, vehicle cohort 11 μg/mL) is reported as 298 µg/mL, the “tolerability by lack of body weight loss” value ([1]; 7 mg/kg i.v. daily for 5 days, athymic nude mice) is reported as “well tolerated” and the “tolerable dose, daily i.v. dosing” value ([1]; athymic nude mice) is reported as “at least 7 mg/kg”. The “human (PBMC and NK cells) effector cell killing of target cells through ADCC” value [2] was “enhance”, the “mouse (SPL cells) effector cell killing of target cells through ADCC” value (tumor target cells) was “enhance” and the “JKT-CD16a activation (luciferase RLU) in the presence of IgG” value (CD16a-158F FcR; OV-CD20 target cells plus 2.5 μg/mL rituximab, 12-18 hours, vs vehicle or no compound) was “significant enhancement”. The “JKT-CD16a-158F FcR activation (luciferase RLU) in the absence of IgG antibody” value (CD16a-158F FcR; OV-CD20 target cells without antibody, lower levels than with IgG) was “stimulated”, the “TNFα, IFNγ, GM-CSF and granzyme B production by NK cells” value (CD16a FcR [3]; absence of antibody, ELISA of supernatants) was “produced and secreted” and the “time of exposure to activation and cytokine production” value (CD16a FcR [3]; time course analysis) was ≤ 30 min. It also gave a half-life at 2 μg/mL [4] of 1.88 h, a microsomal CLint at 2 μg/mL [4] of 12.3 µL/min/mg and a viability at 25 µM (SARS-COV-2 virus) of 100%. The “NK cell killing of OV-CD20 tumor cells via AICC” value (OV-CD20 tumor cells) was “enabled NK cell killing of OV-CD20 tumor cells”, the “IFNγ and TNFα production by JKT-CD16a-158F cells” value (CD16a FcR [5]) was “both cytokines were produced” and the “IFNγ and TNFα production by parental Jurkat cells (CD16a-null)” value (CD16a FcR [5]) was “little to no cytokine production”. For the same molecule, the half-life at 2 μg/mL [6] was 1.18 h and the microsomal CLint at 2 μg/mL [6] was 19.7 µL/min/mg.
